Values of other authors, collected in patent publication US20240139316A1, “USE OF OREGOVOMAB AND BEVACIZUMAB, PACLITAXEL, CARBOPLATIN FOR TREATMENT OF BRCA-WILD TYPE PLATINUM SENSITIVE RECURRENT” (CANARIABIO INC., priority 2021, published 2024).

Tests used:
[1] = oregovomab alone after the initial chemotherapy treatment, advanced ovarian cancer
[2] = four infusions of Oregovomab with standard six cycle carboplatin and paclitaxel, relative to carboplatin-paclitaxel alone
[3] = stage III or IV ovarian cancer after initial surgical operation; bevacizumab added to carboplatin and paclitaxel, followed by single-agent bevacizumab

Oregovomab
clinical outcome [1]: no improvements | overall survival (OS) [2]: significant improvement | progression free survival (PFS) [2]: significant improvement

bevacizumab: recombinant humanized IgG1 monoclonal antibody that selectively binds human VEGF-A
Progression-free survival [3]: 18 months

carboplatin and paclitaxel
Progression-free survival [3]: 13 months
